Reference: patent publication US12180466B2, “Plant tissue collection, RNA extraction and genetic analysis” (WINFIELD SOLUTIONS, LLC, priority 2018, dated 2024)

Experiments:
[1] = test system: maize seeds; assay: Germination of treated maize seeds and harvestability of tissue at timepoints (Maize Trial 1); assay type: in vivo; conditions: for non-harvestable seeds (did not germinate): 120-hour timepoint, subgroup 4, radicle and coleoptile
Protocol: This study applied 5 different PGRs to separate treatment groups each comprised of 30 maize seeds. A negative control group of 30 maize seeds was exposed to a control solution devoid of any PGRs. The ability to germinate the seeds and harvest the desired tissues from the seeds and nascent seedlings at 5 timepoints was evaluated, and the total RNA extracted, sequenced and analyzed. […] Ten plates were prepared for each of the 6 groups evaluated (5 treatment groups+1 control group). Each test group included 5 subgroups, each subgroup corresponding to 1 of the 5 harvesting timepoints. Replicates of each subgroup were prepared, such that each of the 5 subgroups of seeds occupied two plates. Group 1 served as the untreated negative control group. Group 2 was treated with a first PGR composition (“PGR 1”) that includes active components containing 0.09 wt % cytokinin (kinetin), 0.03 wt % GA, and 0.045 wt % IBA. Group 3 was treated with kinetin. Group 4 was treated with GA. Group 5 was treated with IBA. Group 6 was treated with a second PGR composition (“PGR 2”) that includes active components containing 0.11 wt % CPPA and 0.01 wt % cytokinin (kinetin). Stock solutions of the treatments were prepared, each including equal amounts of propylene glycol, which was used to dissolve the kinetin. The amount of each treatment substance applied per seed varied between, but not within, the treatment groups. As shown below in Table 1, the control group was untreated. Each seed within group 2 was treated with 1.2 μL of the PGR 1. Each seed within group 3 was treated with 1.14 μg of kinetin. Each seed within group 4 was treated with 0.572 μg of GA. Each seed within group 5 was treated with 0.381 μg of IBA. Each seed within group 6 was treated with 1.7 μL of PGR 2. The seeds in each group were incubated at 15.5° C. and harvested at 5 timepoints. The first subgroup within each group was harvested after 12 hours of incubation, the second subgroup after 24 hours, the third subgroup after 96 hours, the fourth subgroup after 120 hours, and the fifth subgroup after 144 hours. […]

[2] = test system: maize seeds; assay: Whole-genome RNA sequencing of tissue from PGR-treated germinating maize seeds/seedlings, gene expression relative to control; assay type: in vivo; conditions: radicle, 144-hour timepoint
Protocol: This study applied 5 different PGRs to separate treatment groups each comprised of 30 maize seeds. A negative control group of 30 maize seeds was exposed to a control solution devoid of any PGRs. The ability to germinate the seeds and harvest the desired tissues from the seeds and nascent seedlings at 5 timepoints was evaluated, and the total RNA extracted, sequenced and analyzed. […] Ten plates were prepared for each of the 6 groups evaluated (5 treatment groups+1 control group). Each test group included 5 subgroups, each subgroup corresponding to 1 of the 5 harvesting timepoints. Replicates of each subgroup were prepared, such that each of the 5 subgroups of seeds occupied two plates. Group 1 served as the untreated negative control group. Group 2 was treated with a first PGR composition (“PGR 1”) that includes active components containing 0.09 wt % cytokinin (kinetin), 0.03 wt % GA, and 0.045 wt % IBA. Group 3 was treated with kinetin. Group 4 was treated with GA. Group 5 was treated with IBA. […] Expression data for 39,460 different genes was obtained and analyzed to identify which genes were differentially expressed relative to control samples at the timepoints and tissue types sampled and in response to the different treatments applied to each test group.

Row | Compound | non-harvestable seeds (did not germinate) [1] | expression of gene coding for phosphopantothenate-cysteine ligase protein [2] | seeds that did not germinate ([1]; 144-hour timepoint, subgroup 5)
1 | c1coc(CNc2ncnc3[nH]cnc23)c1 [group 3, kinetin] | 2 seeds |  | 
2 | O=C(O)CCCc1c[nH]c2ccccc12 [IBA, indole-3-butyric acid] |  | increased expression | 1 seeds
3 | C=C1C[C@]23C[C@@]1(O)CC[C@H]2[C@@]12C=C[C@H](O)[C@@](C)(C(=O)O1)[C@H]2[C@@H]3C(=O)O [group 4, gibberellic acid] | 1 seeds |  | 
